In US7314959B2, “Amino thiol compounds and compositions for use in conjunction with cancer therapy” (Wisconsin Alumni Research Foundation, priority 2003, dated 2008):
“Also recorded” adds a separate entry of the source.

How the values were obtained:
[1] = tested on: Cytoxan-induced alopecia in rat pups; test: Cytoxan-induced alopecia in rat pups; format: in vivo
Description: Induction of alopecia by cytoxan (CTX). Lactating Sprague Dawley mother rats with rat pups were purchased from Harlan Sprague Dawley (Indianapolis, Ind.). The mother rats were given food and water ad libitum. The rats pups were tested in the model of chemotherapy-induced alopecia described by Hussein A. M. et al., Science: 249, 1564 (1990). Cytoxan (CTX), a chemotherapeutic widely used in the treatment of cancer, was used to induce alopecia in the rats. A common side effect of cytoxan treatment in patients is alopecia. Lyophilized vials of Cytoxan were obtained from Mead-Johnson. To produce CTX-induced alopecia, 11 day old rat pups, which are at the peak of coat growth, were injected i.p. with 30-35 μg of CTX/gm body weight. CTX was dissolved in water. By day 18 of life, the animals have shed virtually 100% of their coat leaving bare skin on their backs. Thus, topical application of protective drugs to the animal's back prior to the CTX insult provides a suitable test for prevention of chemotherapy-induced alopecia. A separate alopecia assay was also developed in which whole-body irradiation on day 11 of life was used as the insult. This assay is described in further detail in Example 12 which follows.
In the earliest studies with chemoprotective polyamines, the molecules were prepared in a topical delivery vehicle consisting of from 50-70% ethanol in water, depending on the solubility of the compound. The compounds in ethanol/water solution from 50-150 µl in volume were topically administered to the backs of the pups once per day before and after CTX challenge. Using a micropipette, the formulation was applied to an approximately 2 cm2 section of skin on the backs of the rat pups. Specifically, the pups were treated once daily for the 4-5 days before CTX challenge, once on the day of CTX challenge and once daily for 5 days afterwards. Control groups consisted of pups receiving only delivery vehicle. […]
In the earliest studies with chemoprotective polyamines, hair loss was evaluated using a modified alopecia-scoring index described by Chen G. et al., Int. […] In the later studies with aminothiols a simpler scoring scale was adopted in which coat density was scored on a 0-100 scale as “% of normal coat density.”
Method: To assess the ability of topical treatments to prevent Cytoxan-induced alopecia we used a published protocol (Hussein et al., Science. 249(4976):1564-6, 1990) in which 11 day old neonate rat pups (Sprague-Dawley) receive a total of 6 topical skin treatments of active agent(s) during the 5 hr before and 2 hr after a single ip dose of Cytoxan (32 ug/gm b.w.). […] The density of the rat coats in the topical treatment area was scored on day 18 of life for animals injected with Cytoxan.

[2] = tested on: p21 in human fibroblasts; test: p21 western blot in human skin fibroblasts; format: cell-based; conditions: IC70 concentration of PrC-210 (4100 μM); cysteamine 600 μM; 30 hour exposure
Description: Methods (Cell cycle and p21 western): The cell culture experiments were done using primary, human skin fibroblasts, one strain of which (BJ cells) was obtained from ATCC (American Type Culture Collection). […] For flow cytometry and p21 experiments, cells were plated at 0.5×10^6 cells/150 mm plate, and 24 hr later, drug molecules (4100 μM PrC-210, 600 μM cysteamine, 205 μM cysteamine analog, 0.4 μg/ml colcemid) were added to medium. […] (Cancer Research. 61(21):7754-62, 2001). As per the cited reference, cells were fixed, treated with RNAse, and stained with propidium iodide for flow cytometry, or cells were extracted, proteins electrophoresed, and probed with anti-p21 antibody (#SXM-30) for western blot analysis.

With `CNCC(CS)CNC` [PrC-210, 3-methylamino-2-methylaminomethyl-propane-1-thiol] the “Alopecia Score (% Normal Coat Density in Topical Treatment Area)” value ([1]; 2000 mM PrC-210 alone, ip Cytoxan 32 ug/gm b.w., Experiment 552-555) was 9%, the “effect in preventing Cytoxan-induced alopecia” value ([1]; neonate rats, three days topical resveratrol and/or topical PrC-210) was “weak effect” and the p21 expression [2] was “induces expression of the cell cycle regulator, p21; also recorded: marked induction of p21 expression”.
